# Test results from patent publication US6486197B1, “Substance ft-0554 and process for producing the same” (The Kitasato Institute, priority 1997, dated 2002).
# Key:
# Candida albicans KF1 = experiment: Paper disk antimicrobial activity; format: cell-based; design: unit not given here; settings: 1 mg/ml 10 μl on 6 mm paper disk, 24 hours
# [1] = tested on: Mucor racemosus KF223 (IFO 4581); experiment: Paper disk antimicrobial activity; format: cell-based; design: unit not given here; settings: 1 mg/ml 10 μl on 6 mm paper disk, 24 hours
smiles,measurement,setting,value
CCC(C)/C=C/C=C(\C)CC(C)/C=C/C=C/C1OC(=O)C(O)C2OC12C (centres unmarked) [FT-0554 substance],inhibition zone diameter,Candida albicans KF1,12
same,inhibition zone diameter,[1],10
